Patent US8541033B2, “Production of human antibodies using NOD/SCID/γcnull mice” (Central Institute for Experimental Animals, priority 2000, dated 2013)

How the values were obtained:
ED-40515(−) = assay: Effect of CXCR4 antagonist on in vivo growth of ED-40515(−) tumor in NOG mice; settings: 7.5×10^7 cells inoculated, KRH-1636 0.14 mg/mouse intraperitoneally every day, 15 days
Procedure: (§1) Using 3 samples of HTLV-1 leukemia derived cell lines [L=Leukemic cell lines: ED-40515(−), MT-1 and TL-Oml], 6 samples of HTLV-1 infected cell lines [IT=infected transformed cell lines: SLB-1, M8116, HUT-102, MT-2, MT-4 and TY9-31MT], 10^7-8 cells/0.5 mL were transplanted to NOG mice and NOD/Shi-scid mice subcutaneously at a left posterior auricle thereof, and to some of them subcutaneously at a gluteal region thereof. Then, the tumor size in the mice, tissue image, and the mice with, and those without, leukemia were chronologically compared for examination, and the relations between these and transcription factors such as NFkB or fluctuation of Tax protein were also analyzed.
(§2) Assuming that effective tumor formation by 10^7 of ED-40515(−) in NOG mice was attributable to active neogenesis of tumoral vessels via CXCR4 of tumor cells, it has been expected that tumor formation would be inhibited as long as there was continuous administration of KRH-1636, a competitive agent of SDF-1 which was a ligand thereof in endothelial cells. However, in the case of ED-40515(−) and SLB-1 (histologically angiotropic) accompanied by bleeding, the mice formed tumors with sizes of 25×18×12 mm and 20×10×18 mm equivalent to those of non-treated group, even though KRH-1636 was intraperitoneally administered every day.

SLB-1 = assay: Effect of CXCR4 antagonist on in vivo growth of SLB-1 tumor in NOG mice; settings: 7.5×10^7 cells inoculated, KRH-1636 0.14 mg/mouse intraperitoneally every day, 15 days
Procedure: as §1, §2

## C[C@H](NC(=O)[C@H](CCCN=C(N)N)NC(=O)c1ccc(CNCc2ccccn2)cc1)c1cccc2ccccc12 [KRH-1636]
ED-40515(−)
  Remarks (tumor): progressive large tumor
SLB-1
  Remarks (tumor): progressive large tumor
